One series is described as follows: Aqueous solubility. In kind it is physicochemical.
The nature of the next series: LogD7.4. In kind it is physicochemical. To be noted: pH 7.4.
Series [1] in a line: Human liver microsome intrinsic clearance. In kind it is in vitro ADME. On the technique in general: Microsomes from liver hold many membrane-bound enzymes, among them those of drug oxidation.
Series [2] relates to T. b. brucei (strain 427). As to the kind of experiment: T. b. brucei proliferation assay (PrestoBlue, 48 h). To be noted: Trypanosoma brucei. The series is classed as cell-based, Trypanosoma brucei brucei. Summed up:
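T. b. brucei strain 427, 2.5×10^3 per well in HMI-9, exposed to compounds from 50 μM in 1:2 dilutions, in triplicate. Incubated 48 h at 37°C, 5% CO2. PrestoBlue added for 4 h more, fluorescence read at ex 530/em 590 nm.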

Series [3] is described as follows: Plasma and brain pharmacokinetics after single i.p. dose. In kind it is in vivo. To be noted: 10 mg/kg i.p., female BALB/c mice; for Kp: female, BALB/c, brain/plasma, 10 mg/kg. As to the method: PK parameters were measured for both brain and plasma following a single intraperitoneal (i.p.) dose of 10 mg/kg (see Supplementary information, S5 and S6 Tables).
Table S5. Pharmacokinetic parameters of NEU-1060 (compound 14) in plasma and brain following a single intraperitoneal administration in female BALB/c mice (Dose:
Compound Dose Route Matrix Tmax Cmax AUClast AUCinf […]
*The density of brain homogenate was considered as 1 which is equivalent to plasma density (1); Brain conc. and exposure expressed as ng/g and hr.ng/g, respectively.
NC – not calculated due to improper elimination phase
Table S6. Brain to plasma exposure ratio of NEU-1060 (compound 14) after a single intraperitoneal administration in female BALB/c mice (Dose: 10 mg/kg)
Compound Dose Route Matrix Cmax Cmax AUClast Brain to plasma
(mg/kg) (ng/mL) ratio (hr*ng/mL) exposure ratio

A short description of series [4]: Human plasma protein binding. The series is classed as in vitro ADME. To be noted: read-out: Human PPB (converted).
For a further series, the system named is HepG2 cells. In words: Drug toxicity to HepG2 cells (MTT, 48 h). The series is classed as cell-based, human. To be noted: tested concentration ranges based on compound solubility. Summed up: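 HepG2 cells plated overnight, then exposed 48 h to twelve 1.6-fold dilutions (57–10,000 ng/mL) in duplicate at 37° C, 5% CO2. MTT added for 1 h at room temperature; formazan dissolved in acidified isopropanol, absorbance read.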

The subject of a further series is NIH/3T3 cells. As to the kind of experiment: Drug toxicity to 3T3 cells (Alamar Blue, 96 h). In kind it is cell-based. (In general: The colour change of resazurin is a common sign of viable cells or microbes.)

≈ marks a conversion by molar mass, not a printed value. Where two headings read alike, the source gives them in different places.

With `CN1CCN(c2ncc(-c3ccc4c(Nc5ccc(OCc6cccc(F)c6)c(Cl)c5)ccnc4c3)cn2)CC1` [Compound 14], the solubility (usually how much of the substance goes into solution per volume) in “Aqueous solubility” is below 1 µM. Further, the logD (in general, the decadic logarithm of the distribution of all forms, ionised or not, between an organic phase and buffer at a given pH) in “LogD7.4” came to 3.4. The intrinsic metabolic clearance (microsomal CLint) – broadly, the rate of metabolic loss divided by the concentration – in series [1] (liver microsomes) amounted to 54 µL/min/mg. The EC50 (commonly the concentration needed to bring the measured effect to its halfway point) in series [2] came out at 0.006 µM. The “Brain to plasma exposure ratio” value in series [3] (AUClast based, listed as NEU-1060, 10 mg/kg) is given as 7.43. Moreover, the AUClast in series [3] (brain) is 3474.83 ng·h/g. In addition, the Kp in series [3] (mouse, ip, AUClast based, read-out: Brain to plasma exposure ratio) was 7.4. For the same compound, the Kp in series [3] (mouse, ip, brain to plasma, read-out: Cmax ratio) turned out to be 2.85. For the same compound, in series [3] (mouse, ip, brain), the peak concentration (Cmax) – broadly, the maximum level reached in the sampled fluid or tissue – was 211 ng/g and the Tmax (as a rule, the time at which the peak concentration occurs) amounted to 4 h. In series [3] (mouse, ip, plasma), the area under the curve AUC(0-t) (commonly exposure summed from dosing to a finite time, without extrapolation to infinity) came to 468 ng·h/mL; the highest level (Cmax) was 74 ng/mL; the Tmax came to 0.25 h. Besides, the fraction unbound in series [4] was below 0.01.
With `CN1CCN(c2ncc(-c3ccc4c(Nc5cnccn5)ccnc4c3)cn2)CC1` [Compound 22], the solubility in “Aqueous solubility” was 44 µM (≈ 17.5 µg/mL). In the series “LogD7.4”, this compound returned a LogD7.4 of 3.3. Further, the “Human Liver Microsome CLint” value in series [1] is 180 µL/min/mg. Further, the “HepG2 TC50” value in the series with HepG2 cells was above 38 µM. The “3T3 TC50” value in the series with NIH/3T3 cells is 34 µM.

The values above are taken from PMC6283615, “Anilinoquinoline based inhibitors of trypanosomatid proliferation” (PLoS Neglected Tropical Diseases, 2018).
